Assay results as given in the supplement of paper PMC11061612.

How the values were obtained:
Assay in all cases: Bliss excess, mean over the matrix (fraction); higher = more synergy
BT-20 (Breast Carcinoma) = tested on: BT-20 (Breast Carcinoma)
Summary of the method: (§1)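 Bliss excess equals the observed combination effect minus the expected value EA + EB − EA·EB, where EA and EB are the effects of each agent alone. Combination Emax is the second-highest inhibition within the matrix. Inhibition was scaled from CellTiter-Glo 2.0 luminescence, with 0 set by vehicle wells and 1 by blank wells, after 72 hours of two-drug dosing of cells plated in 1536-well plates.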

[1] = tested on: PFSK-1 (Other Solid Carcinomas)
Summary of the method: as §1

EW-18 (Ewing's Sarcoma) = tested on: EW-18 (Ewing's Sarcoma)
Summary of the method: as §1

[2] = tested on: EBC-1 (Squamous Cell Lung Carcinoma)
Summary of the method: as §1

NH-12 (Neuroblastoma) = tested on: NH-12 (Neuroblastoma)
Summary of the method: as §1

[3] = tested on: NCI-H2405 (Lung Adenocarcinoma)
Summary of the method: as §1

GOTO (Neuroblastoma) = tested on: GOTO (Neuroblastoma)
Summary of the method: as §1

[4] = tested on: SCC-9 (Oral Cavity Carcinoma)
Summary of the method: as §1

[5] = tested on: NCI-H322M (Lung Adenocarcinoma)
Summary of the method: as §1

[6] = tested on: OVISE (Ovarian Carcinoma)
Summary of the method: as §1

[7] = tested on: BV-173 (Chronic Myelogenous Leukemia)
Summary of the method: as §1

[8] = tested on: H-EMC-SS (Chondrosarcoma)
Summary of the method: as §1

[9] = tested on: HSC-2 (Oral Cavity Carcinoma)
Summary of the method: as §1

[10] = tested on: VMRC-LCD (Lung Adenocarcinoma)
Summary of the method: as §1

[11] = tested on: KINGS-1 (Low Grade Glioma)
Summary of the method: as §1

[12] = tested on: ASH-3 (Thyroid Gland Carcinoma)
Summary of the method: as §1

[13] = tested on: LC4-1 (B-Lymphoblastic Leukemia)
Summary of the method: as §1

[14] = tested on: LOU-NH91 (Squamous Cell Lung Carcinoma)
Summary of the method: as §1

EW-13 (Ewing's Sarcoma) = tested on: EW-13 (Ewing's Sarcoma)
Summary of the method: as §1

[15] = tested on: NCI-H513 (Other Solid Carcinomas)
Summary of the method: as §1

Compound	Bliss excess (BT-20 (Breast Carcinoma))	Bliss excess [1]	Bliss excess (EW-18 (Ewing's Sarcoma))	Bliss excess [2]	Bliss excess (NH-12 (Neuroblastoma))	Bliss excess [3]	Bliss excess (GOTO (Neuroblastoma))	Bliss excess [4]	Bliss excess [5]	Bliss excess [6]	Bliss excess [7]	Bliss excess [8]	Bliss excess [9]	Bliss excess [10]	Bliss excess [11]	Bliss excess [12]	Bliss excess [13]	Bliss excess [14]	Bliss excess (EW-13 (Ewing's Sarcoma))	Bliss excess [15]
NC1(C(=O)N[C@@H](CCO)c2ccc(Cl)cc2)CCN(c2ncnc3[nH]ccc23)CC1 [Capivasertib] + CC(=O)c1c(C)c2cnc(Nc3ccc(N4CCNCC4)cn3)nc2n(C2CCCC2)c1=O [Palbociclib] (first compound max 10 µM, 7x7, partner max 10 µM)	-0.0038	0.0014	-0.0276	0.06	0.0124	-0.0405	0.0599	0.0004	0.0072	-0.0235	-0.0452	-0.0375	-0.0207	-0.0153	0.0102	-0.0235	0.0772	-0.0617	-0.0161	-0.0061
CC1(C)CCC(CN2CCN(c3ccc(C(=O)NS(=O)(=O)c4ccc(NCC5CCOCC5)c([N+](=O)[O-])c4)c(Oc4cnc5[nH]ccc5c4)c3)CC2)=C(c2ccc(Cl)cc2)C1 [Venetoclax] + CN(C)CCCOc1ccc(-c2ccc3ncc4c(c3c2)n(C2CCOCC2)c(=O)n4C)cn1 [AZD0156] (first compound max 1 µM, 7x7, partner max 1 µM)	-0.0163	0.068	0.0697	0.0095	-0.0978	-0.0324	-0.0194	-0.0351	-0.0103	-0.01	-0.0598	-0.0387	0.0307	-0.0333	-0.0746	-0.0193	0.056	-0.0307	-0.0351	-0.0142
CN(CCO)CC[C@H](CSc1ccccc1)Nc1ccc(S(=O)(=O)NC(=O)c2ccc(N3CCC([C@@H](O)c4ccccc4-c4ccc(Cl)cc4)CC3)cc2)cc1S(=O)(=O)C(F)(F)F [AZD4320] + C1CN(CCC1(C(=O)N[C@@H](CCO)C2=CC=C(C=C2)Cl)N)C3=NC=NC4=C3C=CN4 [Capivasertib] (first compound max 1 µM, 7x7, partner max 3 µM)	0.0427	0.078	-0.0124	-0.0181	-0.0589	-0.0513	-0.034	-0.0761	-0.0402	-0.0459	-0.0135	-0.0081	-0.0379	-0.0521	-0.103	-0.0192	0.0319	-0.067	-0.0633	-0.0501
COc1cc2ncnc(Nc3ccc(F)c(Cl)c3)c2cc1OCCCN1CCOCC1 [Gefitinib] + CC(C)n1c(=O)n(C)c2cnc3cc(F)c(-c4ccc(OCCCN5CCCCC5)nc4)cc3c21 [AZD1390] (first compound max 10 µM, 7x7, partner max 0.3 µM)	-0.047	-0.0688	-0.0343	-0.0434	-0.0643	-0.0597	-0.07	-0.0309	-0.0312	-0.0739	-0.0778	-0.0502	-0.0442	-0.0405	-0.0594	-0.0537	-0.0408	-0.0195	-0.0568	-0.0828
NC1(C(=O)N[C@@H](CCO)c2ccc(Cl)cc2)CCN(c2ncnc3[nH]ccc23)CC1 [Capivasertib] + Cn1cnc2c(F)c(Nc3ccc(Br)cc3Cl)c(C(=O)NOCCO)cc21 [Selumetinib] (first compound max 10 µM, 7x7, partner max 10 µM)	0.0036	0.0717	-0.0219	0.0557	0.0644	0.0153	0.0355	0.145	0.0035	-0.0063	0.0219	0.0635	0.0675	0.0047	0.0272	0.064	0.147	-0.0027	0.0097	-0.0383
CC(=O)c1c(C)c2cnc(Nc3ccc(N4CCNCC4)cn3)nc2n(C2CCCC2)c1=O [Palbociclib] + CC1(C)CCC(CN2CCN(c3ccc(C(=O)NS(=O)(=O)c4ccc(NCC5CCOCC5)c([N+](=O)[O-])c4)c(Oc4cnc5[nH]ccc5c4)c3)CC2)=C(c2ccc(Cl)cc2)C1 [Venetoclax] (first compound max 10 µM, 7x7, partner max 1 µM)	-0.0352	-0.0425	0.0221	0.0208	0.0627	-0.0521	-0.0317	-0.051	-0.0288	-0.0422	0.0021	0.0118	-0.0128	-0.0377	0.0075	-0.0086	-0.0396	-0.0489	-0.0311	-0.0574
Cc1c2c(nn1C)CSCc1cc(n(C)n1)CSc1cc(c3ccccc3c1)OCCCc1c(C(=O)O)n(C)c3c-2c(Cl)ccc13 [AZD5991] + C[C@@H]1COCCN1C2=NC(=NC(=C2)C3(CC3)[S@](=N)(=O)C)C4=C5C=CNC5=NC=C4 [AZD6738] (first compound max 1 µM, 7x7, partner max 10 µM)	0.0977	0.0139	-0.0141	0.039	0.0031	0.0105	-0.0213	0.0134	0.0012	-0.0118	-0.0537	0.0187	-0.0459	0.0179	0.0151	0.0554	0.0101	0.0408	-0.0056	0.0278
CC1(C)CCC(CN2CCN(c3ccc(C(=O)NS(=O)(=O)c4ccc(NCC5CCOCC5)c([N+](=O)[O-])c4)c(Oc4cnc5[nH]ccc5c4)c3)CC2)=C(c2ccc(Cl)cc2)C1 [Venetoclax] + Cn1cnc2c(F)c(Nc3ccc(Br)cc3Cl)c(C(=O)NOCCO)cc21 [Selumetinib] (first compound max 1 µM, 7x7, partner max 3 µM)	-0.0021	-0.0092	-0.104	-0.0542	0.0918	-0.0618	-0.0679	-0.0242	-0.0124	-0.0678	-0.0183	-0.0381	-0.0511	-0.0386	-0.0469	-0.0074	0.0678	-0.0291	-0.0378	-0.0415
COc1nnc2ccc(N3CCC(c4ccc(OCCN5CCN(C)C(=O)[C@H]5C)cc4)CC3)nn12 [AZD5153] + CCN(CCO)CCCOc1ccc2c(Nc3cc(CC(=O)Nc4cccc(F)c4)[nH]n3)ncnc2c1 [AZD2811] (first compound max 1 µM, 7x7, partner max 1 µM)	-0.0105	-0.0478	-0.0273	-0.0274	-0.121	-0.0102	-0.0561	-0.0476	-0.0612	-0.017	-0.0561	-0.0226	-0.0106	0.0435	-0.0374	-0.0284	-0.0739	-0.0363	0.0251	-0.108
CN(CCO)CC[C@H](CSc1ccccc1)Nc1ccc(S(=O)(=O)NC(=O)c2ccc(N3CCC([C@@H](O)c4ccccc4-c4ccc(Cl)cc4)CC3)cc2)cc1S(=O)(=O)C(F)(F)F [AZD4320] + C[C@@H](Nc1cc(F)cc(F)c1)c1cc(C(=O)N(C)C)cc2c(=O)cc(N3CCOCC3)oc12 [AZD8186] (first compound max 1 µM, 7x7, partner max 3 µM)	0.0586	0.0634	0.0747	0.0576	-0.0224	-0.0239	0.0279	-0.0094	0.0489	-0.0322	0.0166	-0.0277	-0.0401	-0.0206	0.0959	-0.051	0.0908	-0.0046	-0.015	0.0113
C[C@@H](c1ccc2nccn2c1)n1nnc2ncc(-c3cnn(C)c3)nc21 [Savolitinib] + Cc1c2c(nn1C)CSCc1cc(n(C)n1)CSc1cc(c3ccccc3c1)OCCCc1c(C(=O)O)n(C)c3c-2c(Cl)ccc13 [AZD5991] (first compound max 1 µM, 7x7, partner max 1 µM)	-0.0135	0.02	-0.0113	0.0076	-0.0375	-0.0547	-0.0227	-0.0281	-0.0638	-0.0291	-0.0404	-0.0081	-0.0493	-0.0198	0.0058	-0.0466	-0.0133	-0.0328	-0.0546	-0.0733
COc1nnc2ccc(N3CCC(c4ccc(OCCN5CCN(C)C(=O)[C@H]5C)cc4)CC3)nn12 [AZD5153] + C[C@@H]1COCCN1C2=NC(=NC(=C2)C3(CC3)[S@](=N)(=O)C)C4=C5C=CNC5=NC=C4 [AZD6738] (first compound max 1 µM, 7x7, partner max 10 µM)	-0.0267	-0.0115	-0.0306	0.0351	-0.0381	0.0638	-0.0422	0.0394	-0.102	-0.0213	-0.0506	-0.0001	-0.0039	0.0235	-0.0124	-0.025	-0.0721	-0.0012	0.0682	0.0117
